A short description of data set [1]: Excitation and fluorescence emission wavelength measurement. On the set-up: Stokes shift (λem − λex): unit not given here. The class given is physicochemical. Particulars: aqueous solution: 10 mg/mL solution in DMSO diluted 500-fold with purified water. The method, then: It should be noted that the excitation wavelength and the fluorescence emission wavelength of the staining compound were determined by measuring an aqueous solution, which had been obtained by diluting 500-fold a 10 mg/mL solution of the staining compound in DMSO with purified water, with a fluorescence spectrophotometer FL 4500 manufactured by Hitachi High-Technologies Corporation.

The subject of the next data set is Zebrafish juveniles. In words: In vivo labelling of Zebrafish juveniles with probe for biological specimen. Set-up: key to Staining property: +++: stained; −: no stained; key to Fluorescence sensitivity: +++: strongly observed; ++: moderately observed; +: weakly observed; −: no stained. Particulars: 1 hour; for Site(s) to be labelled: 10 ng/mL in water, stereoscopic microscope; for Fluorescence sensitivity / Staining property: 10 ng/mL; for Fluorescence sensitivity: fluorescence intensity visually evaluated; for Staining property: visually evaluated. How it is done:
Five juveniles of Zebrafish were put into one well of a well plate together with rearing water. After rearing water had been discharged, 1 mL of distilled water was added to the well, and a solution of a staining compound (1) in DMSO was further added thereto so as to achieve a concentration of 10 ng/mL, followed by gentle stirring (pipetting). Further, Egg Water was prepared by dissolving artificial seawater SEALIFE (manufactured by Marinetech Co., Ltd.) in distilled water at a concentration of 60 mg/L. After the whole had been left to stand for 1 hour, distilled water in the well was discharged and replaced by 1 mL of fresh Egg Water. In addition, such an operation that Egg Water was discharged and replaced by 1 mL of fresh Egg Water was repeated twice. One of the juveniles was taken out from the well onto a dish, supplemented with 100 μL of a 3% methylcellulose aqueous solution to fix the movement of the juvenile, and photographed with a stereoscopic microscope (MZ10F: manufactured by Leica Microsystems K.K.).
The same operation as that in Example 1 was performed except that the staining compound (1) used in Example 1 was changed to any one of the staining compounds described in Table 1.
The same operation as that in Example 1 was performed except that the staining compound (1) used in Example 1 was changed to any one of indocyanine green (ICG) and fluorescein.
The staining property of each of the staining compounds of Labelled Examples 1 to 78 and Labelled Comparative Examples 1 and 2 was visually evaluated (+++: stained and −: no stained).
The fluorescence intensity of each of the staining compounds of Labelled Examples 1 to 78 and Labelled Comparative Examples 1 and 2 was visually evaluated (+++: strongly observed, ++: moderately observed, +: weakly observed, and −: no stained).

Data set [2] in a line: Storage stability of staining compound solution in DMSO. Type of data set: physicochemical. As to conditions: 10 ng/mL in DMSO, closed glass container, normal temperature, 1 month; rate of change of absorbance and fluorescence intensity. How it is done:
A 10 ng/mL solution of each of the staining compounds of Labelled Examples 1 to 78 and Labelled Comparative Examples 1 and 2 in DMSO was prepared, charged into a well-closed container made of glass, and left to stand still at normal temperature for 1 month. The absorbance and the fluorescence intensity at the time of the start of a storage stability test were measured at a given wavelength, and their rates of change were examined (+++: rates of change of the absorbance and the fluorescence intensity are less than 5%, and thus, the storage stability is highly excellent; ++: rates of change of the absorbance and fluorescence intensity are 5 to 15%, and thus, the storage stability is excellent; and −: rates of change of the absorbance and fluorescence intensity are more than 15%, and thus, the storage stability is poor).

Results on seven compounds are retold here after patent publication US9801960B2, “Probe for a biological specimen and labelling method and screening method using the probe” (CANON KABUSHIKI KAISHA, priority 2008, dated 2017).

As for `C=CCN1C(=O)/C(=c2\s/c(=C/c3ccc4c(c3)C3CCCC3N4c3ccc(OC)cc3)c(=O)n2CC(=O)O)SC1=S` (stereo not shown) [Dye 132], in data set [1], the Excitation wavelength λex was 530 nm, the Fluorescence emission wavelength λem turned out to be 680 nm and the “Stokes shift (λem − λex)” value is reported as 150. Besides, in the data set with Zebrafish juveniles, the “Site(s) to be labelled” value is “blood vessel”, the Fluorescence sensitivity entry is “+++” and the Staining property entry is reported as “+++”. In data set [2], the Storage stability entry was “+++ (rates of change of the absorbance and the fluorescence intensity are less than 5%, and thus, the storage stability is highly excellent)”.

For `CSc1cccc(N2c3ccc(/C=C4/SC(=S)N(CC(=O)O)C4=O)cc3C3CCCC32)c1` (stereo not shown) [Dye 115], in data set [1], the Excitation wavelength λex amounted to 520 nm, the Fluorescence emission wavelength λem came out at 640 nm and the “Stokes shift (λem − λex)” value was found to be 120. Moreover, in the data set on Zebrafish juveniles, the “Site(s) to be labelled” value was “blood vessel, gallbladder, and gastrointestinal”; the Fluorescence sensitivity entry is listed as “+++”; the Staining property result is reported as “+++”. For the same compound, the Storage stability entry in data set [2] is “+++ (rates of change of the absorbance and the fluorescence intensity are less than 5%, and thus, the storage stability is highly excellent)”.

On to `C=CCN1C(=O)/C(=c2\s/c(=C/c3ccc4c(c3)C3CCCC3N4c3ccccc3)c(=O)n2CC(=O)O)SC1=S` (stereo not shown) [Dye 133], for which, in data set [1], the Excitation wavelength λex is 510 nm, the Fluorescence emission wavelength λem was found to be 690 nm and the “Stokes shift (λem − λex)” value was 180. For the same compound, in the data set on Zebrafish juveniles, the “Site(s) to be labelled” value was “blood vessel”, the Fluorescence sensitivity result is listed as “+++” and the Staining property entry is on record as “+++”. Also, the Storage stability result in data set [2] is “+++ (rates of change of the absorbance and the fluorescence intensity are less than 5%, and thus, the storage stability is highly excellent)”.

Consider `O=C(O)CCN1C(=O)/C(=C\c2ccc3c(c2)C2CCCC2N3c2ccccc2)SC1=S` (stereo not shown) [Dye 129], for which, in data set [1], the Excitation wavelength λex came out at 522 nm, the Fluorescence emission wavelength λem was found to be 611 nm and the “Stokes shift (λem − λex)” value is 89. For the same compound, in the data set on Zebrafish juveniles, the “Site(s) to be labelled” value is “blood vessel, gallbladder, and gastrointestinal”; the Fluorescence sensitivity result was “+++”; the Staining property entry is reported as “+++”. The Storage stability result in data set [2] was “+++ (rates of change of the absorbance and the fluorescence intensity are less than 5%, and thus, the storage stability is highly excellent)”.

`CC1=NN(c2ccc(C(=O)O)cc2)C(=O)/C1=C\c1ccc2c(c1)C1CCCC1N2Cc1ccccc1` (stereo not shown) [Dye 44]: in data set [1], the Excitation wavelength λex was determined as 510 nm, the Fluorescence emission wavelength λem came out at 558 nm and the “Stokes shift (λem − λex)” value turned out to be 48. Further, in the data set with Zebrafish juveniles, the “Site(s) to be labelled” value is “liver and gastrointestinal tract”; the Fluorescence sensitivity result is “+++”; the Staining property result is listed as “+++”. The Storage stability result in data set [2] was “++ (rates of change of the absorbance and fluorescence intensity are 5 to 15%, and thus, the storage stability is excellent)”.

In the case of `COc1ccc(N2c3ccc(/C=C4\Oc5ccc(I)cc5C4=O)cc3C3CCCC32)cc1` (stereo not shown) [Dye 142], in data set [1], the Excitation wavelength λex is 530 nm, the Fluorescence emission wavelength λem stood at 680 nm and the “Stokes shift (λem − λex)” value is listed as 150. In the data set on Zebrafish juveniles, the “Site(s) to be labelled” value is “gastrointestinal tract”, the Fluorescence sensitivity entry is “+++” and the Staining property entry is reported as “+++”. Besides, the Storage stability entry in data set [2] was “+++ (rates of change of the absorbance and the fluorescence intensity are less than 5%, and thus, the storage stability is highly excellent)”.

Take `CCN1C(=O)/C(=c2/s/c(=C/c3ccc4c(c3)C3CCCC3N4c3ccc(C=C(c4ccccc4)c4ccccc4)cc3)c(=O)n2CC(=O)O)SC1=S` (stereo not shown) [Dye 102]: in data set [1], the Excitation wavelength λex was determined as 551 nm, the Fluorescence emission wavelength λem is 673 nm and the “Stokes shift (λem − λex)” value worked out at 122. Besides, in the data set with Zebrafish juveniles, the “Site(s) to be labelled” value is given as “gastrointestinal tract”, the Fluorescence sensitivity entry is reported as “+++” and the Staining property entry was “+++”. Also, the Storage stability entry in data set [2] was “+++ (rates of change of the absorbance and the fluorescence intensity are less than 5%, and thus, the storage stability is highly excellent)”.
